Patent publication US8426369B2, “Prevention and treatment of colon cancer” (Rutgers, The State University of New Jersey, priority 2006, dated 2013)

How the values were obtained:
[1] = tested on: AOM-induced rat colon carcinogenesis; conditions: 100 ppm; cited from earlier work
[2] = tested on: AOM-induced colonic ACF; conditions: F344 rats; L-N6-(1-iminoethyl)lysine tetrazoleamide at 100 ppm; cited from earlier work
[3] = tested on: colorectal aberrant crypt foci (ACF); conditions: rats; cited from earlier work
[4] = tested on: HT-29 cells; assay: [3H]Thymidine incorporation cell proliferation assay in HT-29 cells; assay type: cell-based, human; conditions: 30 μM, three days
Description: The stilbenes illustrated in FIG. 4 were also used to investigate their ability to inhibit cell proliferation in HT-29 cell line. In this experiment, HT-29 cells (20,000 cells/well in 24-well plate) were treated with the respective stilbenes (each used either at 30 μM or 3 μM) in 10% FBS/DMEM for three days.
(§1) Human colon carcinoma cell lines HT-29 was obtained from the American Type Culture Collection (Manassas, Va.). The cells were maintained in Dulbecco's modification of Eagle's medium (DMEM) supplemented with 10% FBS and 1% penicillin/streptomycin at 37° C. and 5% CO2. The cytokine mixture, consisting of 10 ng/ml of TNF-α, IFN-γ and LPS, was used to induce iNOS and COX-2, unless otherwise mentioned. The cells were treated with the test compound either alone or in combination with cytokines for different time intervals and harvested for protein or RNA.
HT-29 cells were plated at a density of 20,000 cells/well in a 24 well plate and treated with varying concentrations of pterostilbene for a period of 1, 2 or 3 days at 37° C. Before harvest, the cells were incubated with 1 μCi [^3H]thymidine for 4 h at 37° C. and were washed with phosphate buffered saline. The cells were precipitated with cold 10% trichloroacetic acid for 10 min and solubilized with 0.5 ml solubilization buffer (0.2 M NaOH, 40 μg/ml salmon sperm DNA) for 2 h at room temperature. The lysate was transferred to 5 ml Ecolume and the [3H]thymidine incorporated into the DNA of HT-29 cells was determined using a scintillation spectrometer (Beckman Coulter, Fullerton, Calif.).

[5] = tested on: iNOS; assay: Cytokine-induced iNOS protein expression in HT-29 cells (Western blot); assay type: cell-based, human; conditions: stilbene analogs each at 10 μM, 15 hours, HT-29, Western blot
Description: HT-29 human colon adenocarcinoma cells were grown in 10% FBC/DMEM. Cells (about 600,000 cells/well) were plated in 6-well plate and treated with stilbene analogs shown in FIG. 4 (each at 10 μM) for 15 hours together with cytokine mixture comprising TNF-a, IFN0g, and LPS (each at 10 ng/ml). Cell lysates were prepared and subjected to Western Blot analysis.
as §1
The cell culture conditions and the reagents used in this example were described in Example 32. Whole cell extracts were collected after the various treatments and analyzed by western blotting. The protein samples were separated on 4-15% SDS-PAGE gels (Biorad, Hercules, Calif.) followed by transfer to a polyvinylidene fluoride membrane. The membranes were blocked with 5% milk in Tris buffer for 1 h and then incubated with the appropriate primary antibody solutions overnight at 4° C. The membranes were washed with Tris buffer, and incubated with horseradish peroxidase conjugated secondary antibody solutions for 1 h at room temperature.
The protein bands were visualized using a chemiluminescence based kit from Amersham Biosciences (Buckinghamshire, UK). The primary antibodies against iNOS, COX-2, IκBα, cyclin D1, c-myc (Santa Cruz Bio-technology, Santa Cruz, Calif.), phospho-STAT3, phospho-Erk1/2, phospho-JNK1/2, phospho-p38, phospho-Akt, phospho-ATF2, phospho-Elk1, PARP (Cell Signaling Technology Inc., Beverly, Mass.) and actin (Sigma, St. Louis, Mo.) and secondary antibodies (Santa Cruz Biotechnology, Santa Cruz, Calif.) were used for probing the abundance of the target protein in the samples.

Compound	AOM-induced colonic ACF [2]	proliferation of HT-29 cells [4]	also measured
C[C@H]1CC(=N)N[C@@H]2[C@H](Cl)[C@@H]21.Cl [ONO-1714, [1S,5S,6R,7R]-7-chloro-3-imino-5-methyl-2 azabicyclo[4.1.0]heptane hydrochloride]			AOM-induced rat colon carcinogenesis [1]: inhibitory effect
N=C(N)SCCc1ccc(CCSC(=N)N)cc1 [PBIT, S,S′-1,4-phenylene-bis(1,2-ethanediyl)bis-isothiourea]	inhibitory effects		
Oc1ccc(C=Cc2cc(O)cc(O)c2)cc1 [Resveratrol]			growth of colorectal aberrant crypt foci (ACF) [3]: reduce the growth
COc1ccc(/C=C/c2cc(OC)cc(OC)c2)cc1 [ARS-8, (E)-1,3-dimethoxy-5-(4-methoxystyryl)benzene]		inhibited proliferation	
L-N^6-(1-iminoethyl)lysine tetrazoleamide	significantly suppress		
COc1ccc(/C=C\c2cc(OC)cc(OC)c2)cc1 [ARS-9, (Z)-1,3-dimethoxy-5-(4-methoxystyryl)benzene]		inhibited proliferation	induction of iNOS protein expression by cytokine mixture [5]: inhibited
